{"source": "ChEMBL document CHEMBL1127187", "about": "“Semisynthetic modification of hygromycin A. 2. synthesis and antibacterial activity of aryl analogs” (1993)", "type_in_all_cases": "functional", "key": {"Pasteurella multocida": {"tested_on": "Pasteurella multocida", "assay": "Antibacterial activity against Pasteurella multocida (an important animal respiratory pathogen)."}, "[1]": {"tested_on": "Brachyspira hyodysenteriae", "assay": "Antibacterial activity against Serpulina (Treponema) hyodysenteriae (the causative organism of swine dysentery)."}, "[2]": {"tested_on": "Brachyspira hyodysenteriae", "assay": "Compound was tested for antibacterial activity against Serpulina (Treponema hyodysenteriae (the causative organism of swine dysentery)"}}, "data": [{"smiles": "C=CCOc1c(F)cc(/C=C(\\C)C(=O)N[C@@H]2[C@H](O)[C@@H](O)[C@H]3OCO[C@H]3[C@@H]2O)c(F)c1O", "values": [{"measurement": "MIC", "setting": "Pasteurella multocida", "result": 100, "unit": "µg/mL"}, {"measurement": "MIC", "setting": "[1]", "result": 50, "unit": "µg/mL"}]}, {"smiles": "C=CCOc1c(Br)cc(/C=C(/C)C(=O)N[C@@H]2[C@H](O)[C@@H](O)[C@H]3OCO[C@H]3[C@@H]2O)cc1Br", "values": [{"measurement": "MIC", "setting": "Pasteurella multocida", "result": "> 200", "unit": "µg/mL"}, {"measurement": "MIC", "setting": "[1]", "result": "> 200", "unit": "µg/mL"}]}, {"smiles": "C=CCOc1c(F)cc(/C=C(/C)C(=O)N[C@@H]2[C@H](O)[C@@H](O)[C@H]3OCO[C@H]3[C@@H]2O)cc1F", "values": [{"measurement": "MIC", "setting": "Pasteurella multocida", "result": "> 200", "unit": "µg/mL"}, {"measurement": "MIC", "setting": "[1]", "result": 25, "unit": "µg/mL"}]}, {"smiles": "C=CCOc1c(O)cc(/C=C(/C)C(=O)N[C@@H]2[C@H](O)[C@@H](O)[C@H]3OCO[C@H]3[C@@H]2O)cc1Br", "values": [{"measurement": "MIC", "setting": "Pasteurella multocida", "result": "> 200", "unit": "µg/mL"}, {"measurement": "MIC", "setting": "[1]", "result": "> 200", "unit": "µg/mL"}]}, {"smiles": "C=CCOc1ccc(/C=C(/C)C(=O)N[C@@H]2[C@H](O)[C@@H](O)[C@H]3OCO[C@H]3[C@@H]2O)cc1Br", "values": [{"measurement": "MIC", "setting": "Pasteurella multocida", "result": "> 200", "unit": "µg/mL"}, {"measurement": "MIC", "setting": "[1]", "result": 12.5, "unit": "µg/mL"}]}, {"smiles": "C=CCOc1ccc(/C=C(\\C)C(=O)N[C@@H]2[C@H](O)[C@@H](O)[C@H]3OCO[C@H]3[C@@H]2O)c(Cl)c1", "values": [{"measurement": "MIC", "setting": "Pasteurella multocida", "result": "> 200", "unit": "µg/mL"}, {"measurement": "MIC", "setting": "[1]", "result": "> 200", "unit": "µg/mL"}]}, {"smiles": "C=CCOc1ccc(/C=C(\\C)C(=O)N[C@@H]2[C@H](O)[C@@H](O)[C@H]3OCO[C@H]3[C@@H]2O)c(F)c1", "values": [{"measurement": "MIC", "setting": "Pasteurella multocida", "result": 25, "unit": "µg/mL"}, {"measurement": "MIC", "setting": "[1]", "result": 3.13, "unit": "µg/mL"}]}, {"smiles": "C=CCOc1ccc(/C=C(/C)C(=O)N[C@@H]2[C@H](O)[C@@H](O)[C@H]3OCO[C@H]3[C@@H]2O)cc1CO", "values": [{"measurement": "MIC", "setting": "Pasteurella multocida", "result": 100, "unit": "µg/mL"}]}, {"smiles": "C=CCOc1ccc(/C=C(/C)C(=O)N[C@@H]2[C@H](O)[C@@H](O)[C@H]3OCO[C@H]3[C@@H]2O)cc1F", "values": [{"measurement": "MIC", "setting": "Pasteurella multocida", "result": 50, "unit": "µg/mL"}, {"measurement": "MIC", "setting": "[1]", "result": 1.56, "unit": "µg/mL"}]}, {"smiles": "C=CCOc1ccc(/C=C(/C)C(=O)N[C@@H]2[C@H](O)[C@@H](O)[C@H]3OCO[C@H]3[C@@H]2O)cc1NS(C)(=O)=O", "values": [{"measurement": "MIC", "setting": "Pasteurella multocida", "result": "> 200", "unit": "µg/mL"}, {"measurement": "MIC", "setting": "[1]", "result": "> 200", "unit": "µg/mL"}]}, {"smiles": "C=CCOc1ccc(/C=C(/C)C(=O)N[C@@H]2[C@H](O)[C@@H](O)[C@H]3OCO[C@H]3[C@@H]2O)cc1N", "values": [{"measurement": "MIC", "setting": "Pasteurella multocida", "result": 0.78, "unit": "µg/mL"}, {"measurement": "MIC", "setting": "[1]", "result": 0.78, "unit": "µg/mL"}]}, {"smiles": "C=CCOc1ccc(/C=C(/C)C(=O)N[C@@H]2[C@H](O)[C@@H](O)[C@H]3OCO[C@H]3[C@@H]2O)cc1OC", "values": [{"measurement": "MIC", "setting": "Pasteurella multocida", "result": "> 200", "unit": "µg/mL"}, {"measurement": "MIC", "setting": "[1]", "result": "> 200", "unit": "µg/mL"}]}, {"smiles": "C=CCOc1ccc(/C=C(\\C)C(=O)N[C@@H]2[C@H](O)[C@@H](O)[C@H]3OCO[C@H]3[C@@H]2O)cc1CNCC", "values": [{"measurement": "MIC", "setting": "Pasteurella multocida", "result": "> 200", "unit": "µg/mL"}]}, {"smiles": "C=CCOc1cc(F)c(/C=C(/C)C(=O)N[C@@H]2[C@H](O)[C@@H](O)[C@H]3OCO[C@H]3[C@@H]2O)cc1F", "values": [{"measurement": "MIC", "setting": "Pasteurella multocida", "result": 25, "unit": "µg/mL"}, {"measurement": "MIC", "setting": "[1]", "result": 1.56, "unit": "µg/mL"}]}, {"smiles": "C=CCOc1ccc(/C=C(/C)C(=O)N[C@@H]2[C@H](O)[C@@H](O)[C@H]3OCO[C@H]3[C@@H]2O)cc1", "values": [{"measurement": "MIC", "setting": "Pasteurella multocida", "result": 50, "unit": "µg/mL"}, {"measurement": "MIC", "setting": "[1]", "result": 6.25, "unit": "µg/mL"}]}, {"smiles": "C=CCOc1ccc(/C=C(/C)C(=O)N[C@@H]2[C@H](O)[C@@H](O)[C@H]3OCO[C@H]3[C@@H]2O)cc1O", "values": [{"measurement": "MIC", "setting": "[2]", "result": 0.78, "unit": "µg/mL"}, {"measurement": "MIC", "setting": "Pasteurella multocida", "result": 0.78, "unit": "µg/mL"}]}, {"smiles": "C=CCOc1ccc(/C=C(/C)C(=O)N[C@@H]2[C@H](O)[C@@H](O)[C@H]3OCO[C@H]3[C@@H]2O)cc1NC(C)=O", "values": [{"measurement": "MIC", "setting": "Pasteurella multocida", "result": "> 200", "unit": "µg/mL"}, {"measurement": "MIC", "setting": "[1]", "result": "> 200", "unit": "µg/mL"}]}, {"smiles": "C=CCOc1ccc(/C=C(/C)C(=O)N[C@@H]2[C@H](O)[C@@H](O)[C@H]3OCO[C@H]3[C@@H]2O)cc1I", "values": [{"measurement": "MIC", "setting": "[1]", "result": 100, "unit": "µg/mL"}]}, {"smiles": "C=CCOc1ccc(/C=C(\\C)C(=O)N[C@@H]2[C@H](O)[C@@H](O)[C@H]3OCO[C@H]3[C@@H]2O)c(F)c1F", "values": [{"measurement": "MIC", "setting": "Pasteurella multocida", "result": "> 200", "unit": "µg/mL"}, {"measurement": "MIC", "setting": "[1]", "result": 25, "unit": "µg/mL"}]}, {"smiles": "C=CCOc1ccc(/C=C(/C)C(=O)N[C@@H]2[C@H](O)[C@@H](O)[C@H]3OCO[C@H]3[C@@H]2O)cc1C(=O)O", "values": [{"measurement": "MIC", "setting": "Pasteurella multocida", "result": "> 200", "unit": "µg/mL"}, {"measurement": "MIC", "setting": "[1]", "result": "> 200", "unit": "µg/mL"}]}, {"smiles": "C=CCOc1ccc(/C=C(/C)C(=O)N[C@@H]2[C@H](O)[C@@H](O)[C@H]3OCO[C@H]3[C@@H]2O)cc1NC", "values": [{"measurement": "MIC", "setting": "Pasteurella multocida", "result": "> 200", "unit": "µg/mL"}, {"measurement": "MIC", "setting": "[1]", "result": "> 200", "unit": "µg/mL"}]}, {"smiles": "C=CCOc1ccc(/C=C(/C)C(=O)N[C@@H]2[C@H](O)[C@@H](O)[C@H]3OCO[C@H]3[C@@H]2O)cc1C", "values": [{"measurement": "MIC", "setting": "Pasteurella multocida", "result": 50, "unit": "µg/mL"}, {"measurement": "MIC", "setting": "[1]", "result": 6.25, "unit": "µg/mL"}]}, {"smiles": "C=CCOc1c(O)cc(/C=C(/C)C(=O)N[C@@H]2[C@H](O)[C@@H](O)[C@H]3OCO[C@H]3[C@@H]2O)cc1C#N", "values": [{"measurement": "MIC", "setting": "Pasteurella multocida", "result": "> 200", "unit": "µg/mL"}, {"measurement": "MIC", "setting": "[1]", "result": "> 200", "unit": "µg/mL"}]}, {"smiles": "C=CCOc1ccc(/C=C(/C)C(=O)N[C@@H]2[C@H](O)[C@@H](O)[C@H]3OCO[C@H]3[C@@H]2O)cc1Cl", "values": [{"measurement": "MIC", "setting": "[1]", "result": 3.13, "unit": "µg/mL"}]}, {"smiles": "C=CCOc1c(C)cc(/C=C(/C)C(=O)N[C@@H]2[C@H](O)[C@@H](O)[C@H]3OCO[C@H]3[C@@H]2O)cc1C", "values": [{"measurement": "MIC", "setting": "Pasteurella multocida", "result": "> 200", "unit": "µg/mL"}, {"measurement": "MIC", "setting": "[1]", "result": "> 200", "unit": "µg/mL"}]}, {"smiles": "C=CCOc1ccc(/C=C(\\C)C(=O)N[C@@H]2[C@H](O)[C@@H](O)[C@H]3OCO[C@H]3[C@@H]2O)c(OC)c1", "values": [{"measurement": "MIC", "setting": "Pasteurella multocida", "result": "> 200", "unit": "µg/mL"}, {"measurement": "MIC", "setting": "[1]", "result": "> 200", "unit": "µg/mL"}]}, {"smiles": "C=CCOc1c(O)cc(/C=C(/C)C(=O)N[C@@H]2[C@H](O)[C@@H](O)[C@H]3OCOC3[C@@H]2O)cc1OC", "note": "(single isomer, unassigned)", "values": [{"measurement": "MIC", "setting": "Pasteurella multocida", "result": "> 200", "unit": "µg/mL"}, {"measurement": "MIC", "setting": "[1]", "result": "> 200", "unit": "µg/mL"}]}, {"smiles": "CC(=O)[C@H]1O[C@@H](Oc2ccc(C=C(C)C(=O)N[C@@H]3[C@H](O)[C@@H](O)[C@H]4OCO[C@H]4[C@@H]3O)cc2O)[C@@H](O)[C@@H]1O", "note": "[HYGROMYCIN A]", "values": [{"measurement": "MIC", "setting": "Pasteurella multocida", "result": 0.78, "unit": "µg/mL"}, {"measurement": "MIC", "setting": "[1]", "result": 0.78, "unit": "µg/mL"}]}]}
